We go through 8 molecules from BindingDB's records for doi:10.1074/jbc.273.36.23321 (Synaptic Pharmaceutical, 1998).

Residues, ends and D or L forms follow the SMILES beside them.

Assay [1] deals with T1, Galanin receptor type 3 (Rattus norvegicus, UniProt O88626).
T1 sequence (O88626 whole entry): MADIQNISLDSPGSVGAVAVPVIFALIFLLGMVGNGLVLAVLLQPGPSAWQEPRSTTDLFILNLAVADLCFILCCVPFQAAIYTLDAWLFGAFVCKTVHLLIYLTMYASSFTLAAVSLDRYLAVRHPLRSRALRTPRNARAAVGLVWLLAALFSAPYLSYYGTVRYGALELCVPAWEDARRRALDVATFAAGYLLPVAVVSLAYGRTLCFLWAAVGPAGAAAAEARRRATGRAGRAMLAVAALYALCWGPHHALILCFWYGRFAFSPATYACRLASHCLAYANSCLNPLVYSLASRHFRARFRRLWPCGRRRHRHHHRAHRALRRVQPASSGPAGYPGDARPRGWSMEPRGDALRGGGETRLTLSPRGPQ

The next assay has as its target T2, Galanin receptor type 2 (Rattus norvegicus, UniProt O08726).
T2 sequence (O08726 whole entry): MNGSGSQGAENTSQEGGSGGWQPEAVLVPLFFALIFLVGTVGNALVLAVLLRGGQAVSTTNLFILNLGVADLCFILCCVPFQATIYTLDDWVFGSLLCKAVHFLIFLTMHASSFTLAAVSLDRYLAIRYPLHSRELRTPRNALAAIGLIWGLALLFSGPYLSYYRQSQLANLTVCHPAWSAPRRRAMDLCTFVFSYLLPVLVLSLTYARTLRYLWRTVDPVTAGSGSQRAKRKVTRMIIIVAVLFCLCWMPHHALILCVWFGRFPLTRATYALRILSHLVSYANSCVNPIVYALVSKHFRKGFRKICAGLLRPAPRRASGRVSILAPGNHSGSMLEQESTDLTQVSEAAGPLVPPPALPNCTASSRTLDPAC

The target in assay [2] is T3, Galanin receptor type 3 (Homo sapiens, UniProt O60755).
T3 sequence (O60755 whole entry): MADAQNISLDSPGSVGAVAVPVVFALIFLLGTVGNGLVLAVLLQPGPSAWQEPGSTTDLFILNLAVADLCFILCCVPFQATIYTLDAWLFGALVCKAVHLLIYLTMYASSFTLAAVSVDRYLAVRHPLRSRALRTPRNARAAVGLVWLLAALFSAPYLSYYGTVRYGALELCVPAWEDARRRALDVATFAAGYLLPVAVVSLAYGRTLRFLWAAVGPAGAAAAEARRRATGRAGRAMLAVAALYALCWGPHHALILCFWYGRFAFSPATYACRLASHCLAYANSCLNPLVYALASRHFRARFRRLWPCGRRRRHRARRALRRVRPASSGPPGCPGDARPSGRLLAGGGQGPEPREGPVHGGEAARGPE

Broadly, the Ki is a measure of affinity in units of concentration, obtained from inhibition or displacement. A higher Ki goes with lower affinity. In turn, `CC[C@H](C)[C@H](NC(=O)[C@H](Cc1ccc(O)cc1)NC(=O)[C@H](Cc1c[nH]cn1)NC(=O)[C@H](CCCNC(=N)N)NC(=O)[C@@H]1CCCN1C(=O)CNC(=O)[C@H](CC(C)C)NC(=O)[C@H](CC(C)C)NC(=O)[C@H](Cc1ccc(O)cc1)NC(=O)CNC(=O)[C@H](C)NC(=O)[C@H](CO)NC(=O)[C@H](CC(N)=O)NC(=O)[C@H](CC(C)C)NC(=O)[C@@H](NC(=O)[C@H](Cc1c[nH]c2ccccc12)NC(=O)CN)[C@@H](C)O)C(=O)N[C@@H](CC(N)=O)C(=O)N[C@@H](CC(C)C)C(=O)N[C@H](C(=O)N[C@H](C(=O)N[C@@H](CCCNC(=N)N)C(=O)N[C@@H](CCC(N)=O)C(=O)N[C@@H](CCCNC(=N)N)C(=O)N[C@@H](Cc1ccc(O)cc1)C(N)=O)[C@@H](C)O)[C@@H](C)CC` [M32] gave a Ki on Galanin receptor type 3 [1] of 1.23 nM.
Consider `COc1ccccc1N(CCOc1ccc(C)cc1)C(=O)CN1CCCCC1` [CAS_3043476], for which the figures for the Ki on Galanin receptor type 2, at Galanin receptor type 3 [2] and at Galanin receptor type 3 [1] were 1 nM, 39.8 nM and 10.5 nM, respectively.
As to `CC[C@H](C)[C@H](NC(=O)[C@H](C)NC(=O)[C@H](Cc1c[nH]cn1)NC(=O)[C@@H]1CCCN1C(=O)CNC(=O)[C@H](CC(C)C)NC(=O)[C@H](CC(C)C)NC(=O)[C@H](Cc1ccc(O)cc1)NC(=O)CNC(=O)[C@H](C)NC(=O)[C@H](CO)NC(=O)[C@H](CC(N)=O)NC(=O)[C@H](CC(C)C)NC(=O)[C@@H](N)[C@@H](C)O)C(=O)N[C@@H](CC(=O)O)C(=O)N[C@@H](CC(N)=O)C(=O)N[C@@H](Cc1c[nH]cn1)C(=O)N[C@@H](CCCNC(=N)N)C(=O)N[C@@H](CO)C(=O)N[C@@H](Cc1ccccc1)C(=O)N[C@@H](Cc1c[nH]cn1)C(=O)N[C@@H](CC(=O)O)C(=O)N[C@@H](CCCCN)C(=O)N[C@@H](Cc1ccc(O)cc1)C(=O)NCC(=O)N[C@@H](CC(C)C)C(=O)N[C@@H](C)C(N)=O` [Galanin (3-29), porcine], at Galanin receptor type 3 [2], the Ki was determined as 1000 nM.
`CC(C)C[C@H](NC(=O)[C@H](CC(C)C)NC(=O)[C@H](Cc1ccc(O)cc1)NC(=O)CNC(=O)[C@H](C)NC(=O)[C@H](CO)NC(=O)[C@H](CC(N)=O)NC(=O)[C@H](CC(C)C)NC(=O)[C@@H](NC(=O)[C@H](Cc1c[nH]c2ccccc12)NC(=O)CN)[C@@H](C)O)C(=O)NCC(=O)N1CCC[C@H]1C(=O)N1CCC[C@H]1C(=O)N1CCC[C@H]1C(=O)NCC(=O)N[C@@H](Cc1ccccc1)C(=O)N[C@@H](CO)C(=O)N1CCC[C@H]1C(=O)N[C@@H](Cc1ccccc1)C(=O)N[C@@H](CCCN=C(N)N)C(N)=O`: the figures for the Ki at Galanin receptor type 3 [2] and on Galanin receptor type 3 [1] were 14.4 nM and 2.09 nM, respectively.
Molecule `CC(C)C[C@H](NC(=O)[C@H](CC(C)C)NC(=O)[C@@H](Cc1c[nH]c2ccccc12)NC(=O)[C@H](Cc1ccccc1)NC(=O)[C@@H](Cc1c[nH]c2ccccc12)NC(=O)[C@H](CCC(N)=O)NC(=O)[C@H](CCC(N)=O)NC(=O)[C@@H]1CCCN1C(=O)[C@H](CCCCN)NC(=O)[C@@H]1CCCN1C(=O)[C@@H](CCCNC(=N)N)NC(=O)[C@@H]1CCCN1C(=O)CNC(=O)[C@H](CC(C)C)NC(=O)[C@H](CC(C)C)NC(=O)[C@H](Cc1ccc(O)cc1)NC(=O)CNC(=O)[C@H](C)NC(=O)[C@H](CO)NC(=O)[C@H](CC(N)=O)NC(=O)[C@H](CC(C)C)NC(=O)[C@@H](NC(=O)[C@H](Cc1c[nH]c2ccccc12)NC(=O)CN)[C@@H](C)O)C(N)=O` [Gal(1-13)-Std I] (HELM PEPTIDE1{G.W.T.L.N.S.A.G.Y.L.L.G.P.[dR].P.K.P.Q.Q.[dW].F.[dW].L.L.[am]}$$$$V2.0) gave a Ki at Galanin receptor type 3 [1] of 4.47 nM.
As for `CC[C@H](C)[C@H](NC(=O)[C@H](C)NC(=O)[C@H](Cc1cnc[nH]1)NC(=O)[C@@H]1CCCN1C(=O)CNC(=O)[C@H](CC(C)C)NC(=O)[C@H](CC(C)C)NC(=O)[C@H](Cc1ccc(O)cc1)NC(=O)CNC(=O)[C@H](C)NC(=O)[C@H](CO)NC(=O)[C@H](CC(N)=O)NC(=O)[C@H](CC(C)C)NC(=O)[C@@H](NC(=O)[C@H](Cc1c[nH]c2ccccc12)NC(=O)CN)[C@@H](C)O)C(=O)N[C@@H](CC(=O)O)C(=O)N[C@@H](CC(N)=O)C(=O)N[C@@H](Cc1cnc[nH]1)C(N)=O` [Galanin rat], the Ki on Galanin receptor type 2 came to 1.35 nM; at Galanin receptor type 3 [2], 12.3 nM; at Galanin receptor type 3 [1] it was 3.31 nM.
In the case of H-GWTLNSAGYLLGPPPALALA-NH2 [M40], the Ki on Galanin receptor type 2 was 3.55 nM; on Galanin receptor type 3 [2] it was 288 nM; on Galanin receptor type 3 [1] it was 79.4 nM.
With `CC(C)C[C@H](NC(=O)[C@H](CC(C)C)NC(=O)[C@@H](Cc1c[nH]c2ccccc12)NC(=O)[C@H](Cc1ccccc1)NC(=O)[C@@H](Cc1c[nH]c2ccccc12)NC(=O)[C@H](CCC(N)=O)NC(=O)[C@H](CCC(N)=O)NC(=O)[C@@H]1CCCN1C(=O)[C@H](CCCCN)NC(=O)[C@@H]1CCCN1C(=O)[C@@H](CCCN=C(N)N)NC(=O)[C@@H]1CCCN1C(=O)CNC(=O)[C@H](CC(C)C)NC(=O)[C@H](CC(C)C)NC(=O)[C@H](Cc1ccc(O)cc1)NC(=O)CNC(=O)[C@H](C)NC(=O)[C@H](CO)NC(=O)[C@H](CC(N)=O)NC(=O)[C@H](CC(C)C)NC(=O)[C@@H](NC(=O)[C@H](Cc1c[nH]c2ccccc12)NC(=O)CN)[C@@H](C)O)C(N)=O` [Gal(1-13)-Std I] (HELM PEPTIDE1{G.W.T.L.N.S.A.G.Y.L.L.G.P.[dR].P.K.P.Q.Q.[dW].F.[dW].L.L.[am]}$$$$V2.0), the Ki at Galanin receptor type 2 was found to be 0.56 nM; at Galanin receptor type 3 [2], 8.13 nM.
